# Entries after “also recorded” stand apart in the source; their conditions may differ.
# Experiments:
# [1] = Stability of primaquine after exposure to iontophoresis, thin layer chromatography; details: silica gel TLC, n-butanol:acetic acid:water (5:3:2)
# [2] = In-vitro transdermal delivery of primaquine patch across human epidermal membranes with iontophoresis
# [3] = cited from earlier work
# [4] = excised rabbit pinna skin; cited from earlier work
# [5] = oral administration of tablets; cited from earlier work
# [6] = cyclic voltammagrams
# [7] = lithium concentration of 158.4 mM, iontophoresis, mice
# Protocol: First, the total charge delivered to the animal during the course of the experiment was determined.
# The animal model employed was that of the SKH-1 male mouse, 6 weeks old, obtained from Charles River Laboratories. The mice arrived the morning of the experiments and were used within three hours of their arrival.
# Due to the fragility of the iontophoresis pad application and electrode attachment, the mice had to be restrained during the experiments. To accomplish this, a commercial mouse restrainer was purchased from Kent Scientific and modified with two holders on either side of the restrainer. The holders were placed over existing access holes in the restrainer such that spring loaded electrodes could be positioned within the holder.
# The mice were given a low dosage of Halothane to allow them to be weighed and positioned in the restrainer so that there was minimal risk of the electrode pads being kicked or scraped off of the patch as the mouse was being positioned. The Halothane was administered by saturating a paper towel that had been placed at the bottom of a glass desiccator jar. The jar was placed in an exhaust fume hood prior to opening the Halothane bottle. This gave a saturated Halothane environment, in a well-ventilated area, and allowed the effects of the anesthesia to be closely monitored. […]
# [8] = in vivo; cited from earlier work
# [9] = 52.8 mM and 105.6 mM donor
# [10] = patients who are prescribed lithium; cited from earlier work
# plasma cholinesterase = target: T1, plasma cholinesterase (Homo sapiens, UniProt P06276); assay: Selective inhibition of cholinesterase activity in plasma samples; format: biochemical; details: quinidine 20 μM; BTC vs other substrate
# T1 construct: confirming the capacity of the BTC substrate to detect cholinesterase activity in plasma; from tissue; host or cells: plasma
# [11] = Calculated diffusion and mass transfer coefficients in membranes of different thickness; details: Urea in 5.15% agar gel vs Urea, 1 mm layer
# Text: A simplified model can be developed to account for the transport of molecules out of the skin and through the sampling chamber. The model consists of diffusion through the skin, which can be approximated by diffusion through a semi-porous protein matrix membrane and then diffusion into a bulk solution. The concentration profile in the membrane and in the bulk solution may not be consistent, in which case a partition coefficient can be used to relate the transport of molecules from the membrane to the bulk solution. The use of an iontophoretic device can, by nature of the process, produce an electric field. […]
# The bulk phase diffusivity needs to be adjusted to take into account the winding path through a porous matrix. The effective diffusivity is calculated from the bulk diffusivity, void fraction, and the tortuosity. The mass transfer coefficient can be calculated from the effective diffusivity and the membrane thickness. The flux of molecules in the presence of an electrical charge can be calculated with the Nernst-plank equation.
# To illustrate the effect of diffusion through a porous matrix a few calculations were performed as an example. Assuming a protein layer of 1 mm, the mass transfer coefficients were calculated for Urea (0.88 microns/s) and for Urea in a 5.15% agar gel (0.47 microns/s). […]
# Uremic rats = details: intermittent administration; cited from earlier work
# humans = details: cited from earlier work
# T1 sequence (P06276 29-602): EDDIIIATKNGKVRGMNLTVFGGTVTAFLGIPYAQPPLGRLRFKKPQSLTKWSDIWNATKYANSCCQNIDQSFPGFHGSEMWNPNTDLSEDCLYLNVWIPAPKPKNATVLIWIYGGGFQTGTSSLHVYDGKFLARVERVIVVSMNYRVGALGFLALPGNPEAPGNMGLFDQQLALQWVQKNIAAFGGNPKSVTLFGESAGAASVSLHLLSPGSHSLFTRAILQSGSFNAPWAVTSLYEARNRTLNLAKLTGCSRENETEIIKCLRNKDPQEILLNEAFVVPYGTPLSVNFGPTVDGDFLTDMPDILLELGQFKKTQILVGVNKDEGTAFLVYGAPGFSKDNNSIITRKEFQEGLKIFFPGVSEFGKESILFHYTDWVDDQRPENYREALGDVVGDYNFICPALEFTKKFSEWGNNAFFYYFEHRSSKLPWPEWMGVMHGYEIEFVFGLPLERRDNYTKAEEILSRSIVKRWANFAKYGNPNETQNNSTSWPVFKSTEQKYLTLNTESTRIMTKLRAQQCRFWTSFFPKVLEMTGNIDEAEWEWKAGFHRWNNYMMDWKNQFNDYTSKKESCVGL
compound,measurement,setting,value
COc1cc(NC(C)CCCN)c2ncccc2c1 (stereo not shown) [primaquine],stability of the primaquine molecule after exposure to iontophoresis (TLC of receptor compartment contents),[1],intact primaquine is present; also recorded: there is more than one species of molecule present
same,passive diffusion of primaquine before and after iontophoresis,"[2]; epidermal membrane, receptor PBS pH 7.4, no current applied",Minimal passive diffusion
same,amount of primaquine delivered using electrotransport,[2]; in 40 minutes,160 µg
same,share of the 10 mg dose delivered passively each hour,[3]; passive delivery,Approximately 5%
same,amount of primaquine delivered transdermally,"[3]; within 24 hours, to achieve therapeutic plasma concentrations",10 mg
"NC(=O)[C@@H]1CCCN1C(=O)[C@H](Cc1cnc[nH]1)NC(=O)[C@@H]1CCC(=O)N1 [TRH, Thyrotropin-releasing hormone]",pulsed vs continuous current iontophoretic flux,[4],the pulsed iontophoretic flux exceeded that obtained with a continuous current
COC(=O)C(c1ccccc1)C1CCCCN1 (stereo not shown) [Methylphenidate],bioavailability,[5],approximately 30%
CN1CCCC1c1cccnc1 (stereo not shown) [nicotine],voltage at which nicotine is oxidized,[6],~1 volt
"O=C([O-])[O-].[Li+].[Li+] [lithium, lithium carbonate]",serum concentration of lithium,[7],approximately 0.2 mM
same,plasma elimination half-life,[8],12 to 27 h
same,effect of donor compartment lithium carbonate concentration on receiver compartment lithium concentration,[9],caused an equivalent increase in the receiver compartment lithium concentration
same,patients who experience some adverse effects,[10],More than 80%
C=C[C@H]1C[N@@]2CC[C@H]1C[C@@H]2[C@@H](O)c1ccnc2ccc(OC)cc12 [quinidine],inhibitory effect on cholinesterase activity in plasma samples,plasma cholinesterase,the inhibitory effect was observed only when BTC was used
NC(N)=O [Urea],decrease of mass transfer by addition of a gel matrix,[11],47%
"PTH(1-37): parathyroid hormone fragment given intermittently to Uremic rats (AVSEIQLMHNLGKHLASVERMQWLRKKLQDVHNFVSL; Parathyroid hormone; UniProt P04089 32-68, looked up, fragment)",effect on growth and bone mineral density,Uremic rats,improves growth and bone mineral density
"CNC1(C)C2CCC(C2)C1(C)C (stereo not shown) [mecamylamine, Mecamylamine]",effect on self-reported effects of alcohol,humans,reduces the self-reported stimulant and euphoric effects of alcohol

# From patent publication US20090143761A1, “AGENT DELIVERY SYSTEM AND USES OF SAME” (T[…] COMPANY, LLC, priority 2005, published 2009)
